Data published in BigSolDB 2.1.

Conditions: in water

| solubility (mole fraction) (278.15 K) | solubility (mole fraction) (283.15 K) | solubility (mole fraction) (288.15 K) | solubility (mole fraction) (293.15 K) | solubility (mole fraction) (298.15 K) | solubility (mole fraction) (303.15 K) | solubility (mole fraction) (308.15 K) | solubility (mole fraction) (313.15 K) | solubility (mole fraction) (318.65 K) | solubility (mole fraction) (323.15 K) | solubility (mole fraction) (328.15 K) | solubility (mole fraction) (333.15 K) | solubility (mole fraction) (338.15 K) | Structure (SMILES) |
| --- | --- | --- | --- | --- | --- | --- | --- | --- | --- | --- | --- | --- | --- |
| 0.112 | 0.121 | 0.132 | 0.145 | 0.158 | 0.168 | 0.181 | 0.198 | 0.209 | 0.231 | 0.248 | 0.269 | 0.294 | O=C(O)CC(O)C(=O)O (stereo unspecified) |
| 0.0673 | 0.0779 | 0.0869 | 0.0969 | 0.111 | 0.124 | 0.142 | 0.154 | 0.174 | 0.184 | 0.199 | 0.218 | 0.232 | O=C(O)/C=C\C(=O)O |
